Columns and labels:
Cytochrome P450 1A1 = biological target: T1, Cytochrome P450 1A1 (Homo sapiens, UniProt P04798); assay: (§1) Inhibition Assay: Six test compound concentrations (0.1, 0.25, 1, 2.5, 10, 25 μM in DMSO; final DMSO concentration=0.3%) are incubated with human liver microsomes ([…]) and NADPH (1 mM) in the presence of the probe substrate ethoxyresorufin (0.5 μM) for 5 min at 37° C. The selective CYP1A inhibitor, alpha-naphthoflavone, is screened alongside the test compounds as a positive control.
T1 sequence (P04798 whole entry): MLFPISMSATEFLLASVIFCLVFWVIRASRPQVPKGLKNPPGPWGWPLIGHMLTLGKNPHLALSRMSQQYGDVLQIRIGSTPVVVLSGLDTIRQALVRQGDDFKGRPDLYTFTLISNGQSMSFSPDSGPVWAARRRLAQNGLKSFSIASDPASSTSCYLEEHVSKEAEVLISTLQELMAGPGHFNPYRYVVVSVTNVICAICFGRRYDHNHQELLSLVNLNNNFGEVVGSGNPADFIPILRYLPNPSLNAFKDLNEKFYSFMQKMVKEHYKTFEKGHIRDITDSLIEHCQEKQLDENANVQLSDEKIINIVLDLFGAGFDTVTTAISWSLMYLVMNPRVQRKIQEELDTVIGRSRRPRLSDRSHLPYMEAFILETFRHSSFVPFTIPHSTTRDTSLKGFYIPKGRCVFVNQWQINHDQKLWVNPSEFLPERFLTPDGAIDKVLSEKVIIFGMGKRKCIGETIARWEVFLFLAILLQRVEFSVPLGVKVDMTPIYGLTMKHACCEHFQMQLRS

Cytochrome P450 2C19 = Cytochrome P450 2C19 (Homo sapiens, UniProt P33261); assay: (§2) Inhibition Assay: Six test compound concentrations (0.1, 0.25, 1, 2.5, 10, 25 μM in DMSO; final DMSO concentration=[…]) are incubated with human liver microsomes (0.5 mg/mL) and NADPH (1 mM) in the presence of the probe substrate mephenytoin (25 μM) for 60 min at 37° C. The selective CYP2C19 inhibitor, tranylcypromine, is screened alongside the test compounds as a positive control.
Cytochrome P450 2C19, sequence (P33261 whole entry): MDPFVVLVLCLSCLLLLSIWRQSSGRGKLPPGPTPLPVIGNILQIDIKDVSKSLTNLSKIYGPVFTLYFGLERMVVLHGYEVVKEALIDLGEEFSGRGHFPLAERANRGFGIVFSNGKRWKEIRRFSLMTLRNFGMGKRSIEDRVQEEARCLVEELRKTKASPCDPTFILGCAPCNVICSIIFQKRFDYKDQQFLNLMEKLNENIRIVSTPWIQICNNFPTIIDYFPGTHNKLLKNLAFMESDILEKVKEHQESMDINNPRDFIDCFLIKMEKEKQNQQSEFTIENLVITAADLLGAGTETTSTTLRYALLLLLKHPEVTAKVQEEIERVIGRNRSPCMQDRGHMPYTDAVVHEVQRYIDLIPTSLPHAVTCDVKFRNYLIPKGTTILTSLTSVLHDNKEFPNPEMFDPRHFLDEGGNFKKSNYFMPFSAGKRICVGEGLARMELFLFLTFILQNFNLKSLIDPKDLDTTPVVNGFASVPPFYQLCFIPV

Cytochrome P450 2B6 = biological target: T2, Cytochrome P450 2B6 (Homo sapiens, UniProt P20813); assay: Inhibition Assay: Six test compound concentrations (0.1, 0.25, 1, 2.5, 10, 25 μM in DMSO; final DMSO concentration=0.3%) are incubated with human liver microsomes (0.1 mg/mL) and NADPH (1 mM) in the presence of the probe substrate bupropion (110 μM) for 5 min at 37° C. The selective CYP2B6 inhibitor, ticlopidine, is screened alongside the test compounds as a positive control.
T2 sequence (P20813 whole entry): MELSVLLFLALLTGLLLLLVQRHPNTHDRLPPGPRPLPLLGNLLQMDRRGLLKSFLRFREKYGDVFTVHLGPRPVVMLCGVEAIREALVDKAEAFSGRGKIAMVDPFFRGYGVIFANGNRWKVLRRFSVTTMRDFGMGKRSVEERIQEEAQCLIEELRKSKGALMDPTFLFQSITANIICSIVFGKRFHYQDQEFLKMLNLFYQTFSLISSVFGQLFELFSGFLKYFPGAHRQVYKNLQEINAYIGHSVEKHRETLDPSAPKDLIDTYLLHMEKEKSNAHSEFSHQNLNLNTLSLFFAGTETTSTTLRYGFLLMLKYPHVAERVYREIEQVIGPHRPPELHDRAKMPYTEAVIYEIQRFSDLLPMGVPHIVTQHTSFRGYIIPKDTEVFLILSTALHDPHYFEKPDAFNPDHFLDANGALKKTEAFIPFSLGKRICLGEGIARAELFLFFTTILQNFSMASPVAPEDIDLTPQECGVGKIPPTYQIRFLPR

Cytochrome P450 2C8 = biological target: T3, Cytochrome P450 2C8 (Homo sapiens, UniProt P10632); assay: as §1, with “substrate paclitaxel (7.5” for “substrate ethoxyresorufin (0.5”, “for 30” for “for 5”, “selective CYP2C8” for “selective CYP1A”, “inhibitor, montelukast,” for “inhibitor, alpha-naphthoflavone,”
T3 sequence (P10632 whole entry): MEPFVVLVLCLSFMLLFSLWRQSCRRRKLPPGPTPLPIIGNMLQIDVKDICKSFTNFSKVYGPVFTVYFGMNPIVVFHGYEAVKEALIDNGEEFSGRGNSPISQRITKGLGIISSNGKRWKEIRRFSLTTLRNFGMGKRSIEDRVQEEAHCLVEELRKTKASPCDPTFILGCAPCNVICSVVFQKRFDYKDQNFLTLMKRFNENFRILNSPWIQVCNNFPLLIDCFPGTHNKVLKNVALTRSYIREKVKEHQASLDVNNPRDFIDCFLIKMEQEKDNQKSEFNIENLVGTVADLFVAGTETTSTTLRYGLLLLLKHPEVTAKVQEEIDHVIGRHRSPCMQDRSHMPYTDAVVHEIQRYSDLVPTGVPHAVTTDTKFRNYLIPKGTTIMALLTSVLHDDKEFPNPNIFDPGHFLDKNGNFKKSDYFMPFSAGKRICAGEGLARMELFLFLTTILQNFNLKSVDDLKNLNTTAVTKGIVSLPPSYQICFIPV

Cytochrome P450 2C9 = Cytochrome P450 2C9 (Homo sapiens, UniProt P11712); assay: as §2, with “(1” for “(0.5”, “tolbutamide (120” for “mephenytoin (25”, “CYP2C9” for “CYP2C19”, “sulphaphenazole,” for “tranylcypromine,”
Cytochrome P450 2C9, sequence (P11712 whole entry): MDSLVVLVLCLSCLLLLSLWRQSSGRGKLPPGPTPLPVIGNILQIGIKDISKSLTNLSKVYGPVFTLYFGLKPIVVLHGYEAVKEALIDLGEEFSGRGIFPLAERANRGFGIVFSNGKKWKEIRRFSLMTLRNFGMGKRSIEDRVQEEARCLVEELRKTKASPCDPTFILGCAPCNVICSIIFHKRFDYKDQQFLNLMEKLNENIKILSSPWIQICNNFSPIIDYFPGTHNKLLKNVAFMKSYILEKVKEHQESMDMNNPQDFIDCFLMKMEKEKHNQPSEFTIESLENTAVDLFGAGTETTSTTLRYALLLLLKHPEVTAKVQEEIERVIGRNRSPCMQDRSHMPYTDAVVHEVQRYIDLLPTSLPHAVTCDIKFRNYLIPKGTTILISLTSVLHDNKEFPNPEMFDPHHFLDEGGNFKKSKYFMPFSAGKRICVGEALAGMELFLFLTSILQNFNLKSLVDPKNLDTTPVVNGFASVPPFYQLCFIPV

Cytochrome P450 3A4 [1] = biological target: T4, Cytochrome P450 3A4 (Homo sapiens, UniProt P08684); assay: (§3) Inhibition Assay: Six test compound concentrations (0.1, 0.25, 1, 2.5, 10, 25 μM in DMSO; final DMSO concentration=0.275%) are incubated with human liver microsomes (0.5 mg/mL) and NADPH (1 mM) in the presence of the probe substrate testosterone (50 μM) for 5 min at 37° C. The selective CYP3A4 inhibitor, ketoconazole, is screened alongside the test compounds as a positive control.
T4 sequence (P08684 whole entry): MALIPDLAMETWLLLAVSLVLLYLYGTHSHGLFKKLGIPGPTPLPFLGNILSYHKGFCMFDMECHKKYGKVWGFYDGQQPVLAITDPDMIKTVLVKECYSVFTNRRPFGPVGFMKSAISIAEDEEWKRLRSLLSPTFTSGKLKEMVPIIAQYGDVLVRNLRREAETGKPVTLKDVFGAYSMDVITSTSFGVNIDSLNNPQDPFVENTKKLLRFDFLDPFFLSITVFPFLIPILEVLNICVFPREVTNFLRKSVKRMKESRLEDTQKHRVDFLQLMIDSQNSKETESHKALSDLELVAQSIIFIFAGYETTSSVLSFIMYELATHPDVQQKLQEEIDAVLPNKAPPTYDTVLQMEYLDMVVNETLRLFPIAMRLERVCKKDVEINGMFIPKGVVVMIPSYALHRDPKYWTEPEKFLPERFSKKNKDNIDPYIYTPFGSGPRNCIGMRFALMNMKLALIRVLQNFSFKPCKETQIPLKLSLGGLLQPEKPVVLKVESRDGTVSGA

Cytochrome P450 3A4 [2] = biological target: T4, Cytochrome P450 3A4; assay: as §3, with “concentration=0.26%)” for “concentration=0.275%)”, “(0.1” for “(0.5”, “midazolam ([…])” for “testosterone (50 μM)”

## O=c1ccc2nc3ccc(O)cc3oc-2c1
Cytochrome P450 1A1
  IC50: > 25 µM

## CCC1(c2ccc(O)cc2)NC(=O)N(C)C1=O (configuration not stated)
Cytochrome P450 2C19
  IC50: > 25 µM

## CC(NC(C)(C)CO)C(=O)c1cccc(Cl)c1 (configuration not stated)
Cytochrome P450 2B6
  IC50: 19.2 µM

## CC(=O)O[C@H]1C(=O)[C@@]2(C)[C@H]([C@H](OC(=O)c3ccccc3)[C@]3(O)C[C@H](OC(=O)[C@H](O)[C@@H](NC(=O)c4ccccc4)c4ccccc4)C(C)=C1C3(C)C)[C@]1(OC(C)=O)CO[C@@H]1[C@@H](O)[C@@H]2O
Cytochrome P450 2C8
  IC50: 21.6 µM

## CCCCNC(=O)NS(=O)(=O)c1ccc(CO)cc1
Cytochrome P450 2C9
  IC50: > 25 µM

## C[C@]12CC[C@H]3[C@@H](C[C@@H](O)C4=CC(=O)CC[C@@]43C)[C@@H]1CC[C@@H]2O [6beta-hydroxytestosterone]
Cytochrome P450 3A4 [1]
  IC50: 10.5 µM

## OCc1ncc2n1-c1ccc(Cl)cc1C(c1ccccc1F)=NC2 [ALPHA-HYDROXY-MIDAZOLAM]
Cytochrome P450 3A4 [2]
  IC50: 2.7 µM
